Source: patent US9636311B2, “N,N′-di-1 naphthylguanidine HCl (NAGH) and N,N′-di-p-nitrophenylguanidine HCl (NAD) treatment for stroke at delayed timepoints” (University of South Florida, priority 2012, dated 2017)
Like-named read-outs stand apart in the source and are kept apart here.

Tests used:
[1] = test system: rats following MCAO; experiment: Elevated body swing test after MCAO; type: in vivo, rat; conditions: 30 days after MCAO; p=0.009
Experimental: MCAO surgeries were performed as described elsewhere (Vendrame M, Cassady C J, Newcomb J, Butler T, Pennypacker K R, Zigova T, et al. Stroke. 2004; 35:2390-2395). Briefly, rats were anesthetized with isoflurane, and the right common carotid and external carotid arteries were exposed using blunt dissection techniques. The vagus nerve was separated from common carotid artery and the external carotid artery was ligated proximally, and transected near the bifurcation. An embolus 40 mm in length (4.0 siliconized monofilament) was inserted into the external carotid artery and fed distally into the origin of the middle cerebral artery (˜25 mm from insertion) through the internal carotid artery. Blood samples were taken and analyzed using an i-STAT handheld analyzer for hemoglobin, hematocrit, ionized calcium, glucose, sodium, potassium, pH, pCO2, HCO3, TCO2, base excess, pO2, and O2. Cerebral blood flow was recorded using a Laser Doppler Monitor (Moor Instruments) to verify occlusion. […]
The animal was placed in a Plexiglas box (40×40×35.5 cm), allowed to habituate for 2 minutes and attain a neutral position, defined as having all four paws on the ground. […] A swing was recorded whenever the animal moved its head out of the vertical axis to the right or left over […]. Swings were recorded using a hand counter. […]

[2] = test system: rats following MCAO; experiment: Brain infarction quantification (Nissl thionin) after MCAO; type: in vivo, rat; conditions: s.c. daily for 3 days from 24 h post-MCAO (NAGH 0.86 mg/kg, NAD 2.8 mg/kg); 30 days post MCAO; mean±SEM
Experimental: All animal procedures were performed according to the University of South Florida guidelines for the care and use of animals and protocols were reviewed and approved by the Institutional Animal Care and Use Committee and adhered to the NIH guidelines for the care and use of animals. Adult male Sprague Dawley rats (Harlan) weighing about 250-300 g at the time of surgery were used for the study. All animals were housed two per cage in a temperature controlled room, under a 12 hour light-dark cycle, and given access to water and food ad libitum. Animals were monitored daily for wellness and biweekly for weight loss. For the NAGH studies, a total of 84 animals were randomly assigned to 2 groups: MCAO only (n=42) and rat treated with NAGH (n=42) beginning 24 hour after MCAO.
MCAO surgeries were performed as described elsewhere (Vendrame M, Cassady C J, Newcomb J, Butler T, Pennypacker K R, Zigova T, et al. Stroke. 2004; 35:2390-2395). Briefly, rats were anesthetized with isoflurane, and the right common carotid and external carotid arteries were exposed using blunt dissection techniques. The vagus nerve was separated from common carotid artery and the external carotid artery was ligated proximally, and transected near the bifurcation. An embolus 40 mm in length (4.0 siliconized monofilament) was inserted into the external carotid artery and fed distally into the origin of the middle cerebral artery (˜25 mm from insertion) through the internal carotid artery. Blood samples were taken and analyzed using an i-STAT handheld analyzer for hemoglobin, hematocrit, ionized calcium, glucose, sodium, potassium, pH, pCO2, HCO3, TCO2, base excess, pO2, and O2. Cerebral blood flow was recorded using a Laser Doppler Monitor (Moor Instruments) to verify occlusion. Afterwards, the embolus was ligated permanently into the vessel and the neck incision was closed. Animals were treated with Ketoprofen IM (10 mg/kg) for three days post-surgery.
For the NAGH studies, vehicle or NAGH were prepared fresh each day. Daily subcutaneous injections (s.c) were administered beginning about 24 hours after MCAO and continued daily to about 72 hours post-surgery (FIG. 1). Animals received a total of 3 injections. A total of 84 animals were randomly assigned into 2 groups: Rats treated with vehicle (40% DMSO in sterile saline, n=42), or rats treated with 0.86 mg/kg NAGH (n=42).
For the studies with other compounds based on the structure of DTG, twenty-four hours after MCAO, the rats began a sigma agonist treatment regimen. Vehicle or drug was prepared fresh each day. […]
Infarct size was determined by Nissl thionin staining. […]

[3] = test system: microglial cells; experiment: Inhibition of microglial migration evoked by ATP; type: cell-based
Experimental: (§1) FIG. 8 is a series of images confirming NAGH acts as a sigma receptor agonist. A) Concentration-response relationship for NAGH (closed circles) and DTG (open circles) inhibition of microglial migration evoked by 100 μM ATP. […] Points represent mean (±SEM) and for all points, n>9. B) Bar graph of the mean (±SEM) number of microglial cells migrating in response to 100 μM ATP when ATP was added alone (DMEM) or in the presence of 100 μM NAGH. Microglia were further exposed to no σ antagonist (Control), or the σ-1 antagonist, BD-1047 (10 μM, BD-1047), or the σ-2 antagonist, rimcazole (10 μM, Rimcazole). Asterisks denote significant difference between DMEM and NAGH within Control, BD-1047 and Rimcazole groups, respectively. Pound symbols indicate significant difference between Control, BD-1047 and Rimcazole within DMEM and NAGH groups, respectively. P<0.05 and n=24 for all groups.
as §1, with “8A illustrates the concentration-response” for “8 is a series of images confirming NAGH acts as a sigma receptor agonist. A) Concentration-response”, “FIG. 8B depicts a bar” for “B) Bar”

[4] = migration evoked by 100 μM ATP, two-component Langmuir-Hill fit

Cl.N=C(Nc1cccc2ccccc12)Nc1cccc2ccccc12 [NAGH, N,N′-di-1-Naphthylguanidine hydrochloride]
EBST bias vs DMSO [1]: significantly less bias
Infarct volume (percent of hemisphere) [2]: 13.58±2.3%
Microglial migration ([3]; 100 μM ATP, via σ-1 and σ-2 receptors): blocks microglial migration
Emax, high affinity component [3, 4]: 0.43
Emax, low affinity component [3, 4]: 0.57
Hill coefficient, high affinity component [3, 4]: 2.2
Hill coefficient, low affinity component [3, 4]: 0.80
IC50 ([3]; migration evoked by 100 μM ATP, two-component Langmuir-Hill fit, read-out: IC50, high affinity component): 0.75 µM
IC50 ([3]; read-out: IC50, low affinity component): 84 µM
